The text below walks through data of US5654451A, “Amino acids and peptides having modified C-terminals and modified N-terminals” (Magainin Pharmaceuticals Inc., priority 1995, dated 1997).

Values after ≈ are worked out from the molar mass of the structure shown.

Holding throughout (assay): Antimicrobial assay (MIC, microtiter broth dilution)
Holding throughout (type): cell-based
A general note: In broth dilution the organism is exposed to a series of concentrations in liquid medium.

One test concerns E. coli. As to the method: (§1) The procedure for the antimicrobial assay is based upon the guidelines of the National Committee for Clinical Laboratory Standards, Document M7-T2, Volume 8, No. 8, 1988.
(§2) 1-5×10^5 CFUs/ml of either S. aureus ATCC 25923, E. coli ATCC 25922, P. aeruginosa ATCC 27853, or C. albicans were added to the wells in full strength Mueller Hinton broth (BBL 11443) from a mid-log culture. The inoculum is standardized spectrophotometrically at 600 nm and is verified by colony counts. The plates are incubated for 16-20 hours at 37° C., and the minimal inhibitory concentrations (MIC) for the compounds are determined. Minimal inhibitory concentration is defined as the lowest concentration of amino acid or peptide which produces a clear well in the microtiter plate.

The subject of another test is P. aeruginosa. The following applies: for MIC Psuedo: Table VI; for MIC P aeruginosa: Table I, P. aeruginosa ATCC 27853. How it is done: as §1, §2
The subject of another test is S. aureus. The following applies: for MIC Staph: Table VI; for MIC S. aureus: Table I, S. aureus ATCC 25923. How it is done: as §1, §2
In the next test the test system is C. albicans. The following applies: for MIC Candida: Table VI; for MIC C. albicans: Table I. As to the method: as §1, §2

Consider `CCCCCCCCN(CCCCCCCC)C(=O)CC(O)CNC(=N)N` (stereo not drawn) [Compound 84, γ-Guanidino-β-hydroxy butyrul dioctylamide], for which, in the test with E. coli (Table VI), the “MIC E. coli” value worked out at 4 µg/mL (≈ 10.4 µM). Further, the “MIC Psuedo” value with P. aeruginosa stood at 16 µg/mL (≈ 41.6 µM). Also, the “MIC Staph” value in the test on S. aureus is 1 µg/mL (≈ 2.6 µM). Further, in the test on C. albicans, the “MIC Candida” value stood at 0.5 µg/mL (≈ 1.3 µM).

On to `CCCCCCCCN(CCCCCCCC)C(=O)C(Cc1ccccc1)NCc1ncc[nH]1` (stereo not drawn) [Compound 80, N^α -(Imidazole-2-methyl)-Phe-dioctylamide], for which, in the test on E. coli (Table VI), the “MIC E. coli” value is more than 256 µg/mL. Also, the “MIC Psuedo” value with P. aeruginosa is more than 256 µg/mL. Further, the “MIC Staph” value in the test with S. aureus was 2 µg/mL (≈ 4.27 µM). In addition, the “MIC Candida” value against C. albicans was more than 256 µg/mL.

For “β-Guanidino-propionyl dioctylamide [Compound 75]”, the “MIC E. coli” value against E. coli (Table VI) fell in the range of 4 to 8 µg/mL. Further, the “MIC Psuedo” value against P. aeruginosa came out at 16 µg/mL. Besides, in the test with S. aureus, the “MIC Staph” value was in the range of 0.5 to 1.0 µg/mL. The “MIC Candida” value in the test on C. albicans is 1.0 µg/mL.

With `CCCCCCCCN(CCCCCCCC)C(=O)[C@@H](Cc1ccccc1)NC(=N)N` [Compound 70, N^α -Amidino-D Phe-dioctylamide], the “MIC E. coli” value against E. coli (Table VI) was 64 µg/mL (≈ 149 µM). In the test on P. aeruginosa, the “MIC Psuedo” value was 256 µg/mL (≈ 594 µM). The “MIC Staph” value with S. aureus is 2 µg/mL (≈ 4.64 µM). Further, the “MIC Candida” value in the test with C. albicans came out at 2 µg/mL (≈ 4.64 µM).

For “N-α-amidino phenylalanyl heptylamide [Compound 27]”, the “MIC E. coli” value with E. coli (Table I, E. coli ATCC 25922) stood at 128 µg/mL. Besides, in the test with P. aeruginosa, the “MIC P aeruginosa” value came out at 128 µg/mL. Further, the “MIC S. aureus” value against S. aureus amounted to 8 µg/mL. Besides, in the test with C. albicans, the “MIC C. albicans” value amounted to 64 µg/mL.

With `CCCCCCCCN(CCCCCCCC)C(=O)C(Cc1cnc[nH]1)NC(=N)N` (stereo not drawn) [Compound 78, N^α -Amidino-His-dioctylamide], the “MIC E. coli” value against E. coli (Table VI) amounted to 4 µg/mL (≈ 9.51 µM). The “MIC Psuedo” value against P. aeruginosa is 8 µg/mL (≈ 19 µM). Also, the “MIC Staph” value in the test on S. aureus was determined as 1 µg/mL (≈ 2.38 µM). In addition, the “MIC Candida” value in the test with C. albicans stood at 1 µg/mL (≈ 2.38 µM).

On to “β-Guanidino-propionyl dodecylamide [Compound 37]”, for which the “MIC E. coli” value with E. coli (Table VI) lay in the range of 4 to 8 µg/mL. Further, the “MIC Psuedo” value against P. aeruginosa came to 16 µg/mL. Moreover, in the test on S. aureus, the “MIC Staph” value is 1 µg/mL. In addition, in the test on C. albicans, the “MIC Candida” value worked out at 4 µg/mL.

As for `N=C(N)NC(CCC(=O)NC12CC3CC(CC(C3)C1)C2)C(=O)NC12CC3CC(CC(C3)C1)C2` (stereo not drawn) [Compound 86, N^α -Amidino-Glu-(α,γ) diadamantanamide], in the test on E. coli (Table VI), the “MIC E. coli” value came out at 128 µg/mL (≈ 281 µM). In addition, the “MIC Psuedo” value in the test with P. aeruginosa was determined as 128 µg/mL (≈ 281 µM). Moreover, in the test with S. aureus, the “MIC Staph” value was 4 µg/mL (≈ 8.78 µM). In the test on C. albicans, the “MIC Candida” value is 32 to 64 µg/mL.

Take “β-Guanidino-propionyl adamantanamide [Compound 82]”: the “MIC E. coli” value against E. coli (Table VI) was more than 256 µg/mL. Further, the “MIC Psuedo” value against P. aeruginosa was more than 256 µg/mL. The “MIC Staph” value with S. aureus amounted to 64 µg/mL. Further, the “MIC Candida” value against C. albicans was more than 256 µg/mL.

For `CCCCCCCCN(CCCCCCCC)C(=O)C(Cc1ccccc1)N=C(N)N` (stereo not drawn) [Compound 32, N-α-amidino-phenylalanyl dioctylamide], the “MIC E. coli” value with E. coli (Table I, E. coli ATCC 25922) turned out to be 8 µg/mL (≈ 18.6 µM). The “MIC P aeruginosa” value against P. aeruginosa stood at 128 µg/mL (≈ 297 µM). The “MIC S. aureus” value against S. aureus is 1,2 μg/ml. The “MIC C. albicans” value in the test with C. albicans was 2 µg/mL (≈ 4.64 µM).

For “γ-Guanidino-butyryl dioctylamide [Compound 71]”, the “MIC E. coli” value in the test with E. coli (Table VI) was 4 µg/mL. In the test with P. aeruginosa, the “MIC Psuedo” value worked out at 32 µg/mL. Besides, the “MIC Staph” value against S. aureus was 0.5 to 1.0 µg/mL. For the same compound, the “MIC Candida” value against C. albicans is less than 0.25 µg/mL.

For the compound `CCCCCCN(CCCCCC)C(=O)C(Cc1ccccc1)NC(=N)N` (stereo not drawn) [Compound 68, N^α -Amidino-Phe-dihexylamide], the “MIC E. coli” value against E. coli (Table VI) was 16 to 32 µg/mL. Besides, the “MIC Psuedo” value with P. aeruginosa fell in the range of 16 to 64 µg/mL. Besides, the “MIC Staph” value against S. aureus is 0.5 to 1.0 µg/mL. Further, the “MIC Candida” value in the test with C. albicans was in the range of 4 to 16 µg/mL.

As to `N=C(N)NC(Cc1ccccc1)C(=O)Nc1ccc(C=Cc2ccc(NC(=O)C(Cc3ccccc3)NC(=N)N)cc2)cc1` (stereo not drawn) [Compound 47, 4,4'-[Di-(N^α -amidino-Phe)] diaminostilbene], the “MIC E. coli” value with E. coli (Table VI) stood at 16 µg/mL (≈ 27.2 µM). Also, the “MIC Psuedo” value in the test on P. aeruginosa was determined as 32 µg/mL (≈ 54.4 µM). Moreover, in the test with S. aureus, the “MIC Staph” value is 05 to 10 µg/mL. Besides, the “MIC Candida” value with C. albicans amounted to 256 µg/mL (≈ 435 µM).

As to `CCCCCCCCN(CCCCCCCC)C(=O)C(Cc1ccc(N)cc1)NC(=N)N` (stereo not drawn) [Compound 88, N^α -Amidino-p-amino-Phe-dioctylamide], the “MIC E. coli” value with E. coli (Table VI) amounted to 4 µg/mL (≈ 8.97 µM). The “MIC Psuedo” value with P. aeruginosa was found to be 32 µg/mL (≈ 71.8 µM). The “MIC Staph” value against S. aureus worked out at 1 µg/mL (≈ 2.24 µM). The “MIC Candida” value against C. albicans came to 0.5 µg/mL (≈ 1.12 µM).

Regarding “N-α-amidino-phenylalanyl dodecylamide [Compound 31]”, the “MIC E. coli” value with E. coli (Table I, E. coli ATCC 25922) is 8 µg/mL. The “MIC P aeruginosa” value with P. aeruginosa amounted to 64 µg/mL. Also, the “MIC S. aureus” value in the test with S. aureus was found to be 2 µg/mL. Besides, the “MIC C. albicans” value against C. albicans came to 4 µg/mL.

Regarding “p-Guanidino methyl-benzoyl dioctylamide [Compound 72]”, the “MIC E. coli” value in the test on E. coli (Table VI) was 4 µg/mL. Also, in the test with P. aeruginosa, the “MIC Psuedo” value was 64 µg/mL. In addition, in the test on S. aureus, the “MIC Staph” value was determined as 1 µg/mL. In addition, the “MIC Candida” value with C. albicans was determined as 0.5 µg/mL.

Take `CCCCCCCCN(CCCCCCCC)C(=O)C(Cc1c[nH]c2ccccc12)NC(=N)N` (stereo not drawn) [Compound 66, N^α -Amidino-Trp-dioctylamide]: the “MIC E. coli” value against E. coli (Table VI) turned out to be 256 µg/mL (≈ 545 µM). In the test with P. aeruginosa, the “MIC Psuedo” value worked out at 256 µg/mL (≈ 545 µM). Further, the “MIC Staph” value against S. aureus came out at 8 µg/mL (≈ 17 µM). In the test on C. albicans, the “MIC Candida” value was 16 µg/mL (≈ 34.1 µM).

As for `CCCCCN(CCCCC)C(=O)C(Cc1ccccc1)NC(=N)N` (stereo not drawn) [Compound 67, N^α -Amidino-Phe-dipentylamide], in the test on E. coli (Table VI), the “MIC E. coli” value worked out at 64 µg/mL (≈ 185 µM). In addition, the “MIC Psuedo” value with P. aeruginosa is 128 µg/mL (≈ 369 µM). Besides, the “MIC Staph” value with S. aureus is 4 µg/mL (≈ 11.5 µM). The “MIC Candida” value in the test with C. albicans was 64 µg/mL (≈ 185 µM).

With `CCCCCCCCN(CCCCCCCC)C(=O)C(Cc1ccc(F)cc1)NC(=N)N` (stereo not drawn) [Compound 83, N^α -Amidino-p-F-Phe-diocytlamide], the “MIC E. coli” value against E. coli (Table VI) amounted to 64 µg/mL (≈ 143 µM). The “MIC Psuedo” value against P. aeruginosa was 128 µg/mL (≈ 285 µM). For the same compound, the “MIC Staph” value in the test with S. aureus was found to be 2 µg/mL (≈ 4.46 µM). The “MIC Candida” value with C. albicans is 2 µg/mL (≈ 4.46 µM).

As for `CCCCCCCCN(CCCCCCCC)C(=O)CCCCNC(=N)N` [Compound 79, S-Guanidino Valeryl-dioctylamide], the “MIC E. coli” value against E. coli (Table VI) turned out to be 8 µg/mL (≈ 20.9 µM). Moreover, the “MIC Psuedo” value in the test with P. aeruginosa was more than 256 µg/mL. For the same compound, in the test with S. aureus, the “MIC Staph” value stood at 2 µg/mL (≈ 5.23 µM). Further, the “MIC Candida” value in the test on C. albicans fell in the range of 1 to 2 µg/mL.

Take phenylalanyl heptylamide [Compound 26]: the “MIC E. coli” value with E. coli (Table I, E. coli ATCC 25922) came to 128 µg/mL. The “MIC P aeruginosa” value in the test on P. aeruginosa was more than 256 µg/mL. Besides, in the test with S. aureus, the “MIC S. aureus” value was 256 µg/mL. For the same compound, the “MIC C. albicans” value against C. albicans is 128 µg/mL.

On to `N=C(N)NC(Cc1ccccc1)C(=O)NC1CCCCC1` (stereo not drawn) [Compound 77, N^α -Amidino-Phe-cyclohexylamide], for which the “MIC E. coli” value in the test with E. coli (Table VI) was more than 256 µg/mL. For the same compound, the “MIC Psuedo” value against P. aeruginosa was more than 256 µg/mL. The “MIC Staph” value against S. aureus was 128 µg/mL (≈ 444 µM). The “MIC Candida” value against C. albicans is more than 256 µg/mL.

For the compound `CCCCCCCCN(CCCCCCCC)C(=O)[C@H](Cc1ccccc1)NC(=O)CC(O)CNC(=N)N` (stereo partly drawn) [Compound 85, γ-Guanidino-β-hydroxy butyryl-Phe-dioctylamide], the “MIC E. coli” value in the test on E. coli (Table VI) is 32 µg/mL (≈ 60.2 µM). Also, the “MIC Psuedo” value in the test on P. aeruginosa came out at 64 µg/mL (≈ 120 µM). Besides, the “MIC Staph” value with S. aureus worked out at 1 µg/mL (≈ 1.88 µM). In the test with C. albicans, the “MIC Candida” value turned out to be 0.5 µg/mL (≈ 0.94 µM).
